Reference: ChEMBL document CHEMBL1154198, “Chemical genetics of Plasmodium falciparum” (Nature, 2010)

How the values were obtained:
[1] = test system: Plasmodium falciparum; test: ST_JUDE: Plasmodium falciparum K1 EC50 (uM) as measured by SYBR green dye; type: functional, organism-based
[2] = test system: Plasmodium falciparum; test: ST_JUDE: Plasmodium falciparum 3D7 EC50 (uM) as measured by SYBR green dye; type: functional, organism-based

Compound	EC50 [1] [µM]	EC50 [2] [µM]
COC(=O)C1=CNC=C(C(=O)OC)C1c1ccc(Cl)c([N+](=O)[O-])c1	0.744	0.62
O=C(Nc1ccc(-c2nc3cc(NC(=O)c4ccc(Br)o4)ccc3[nH]2)cc1)c1ccc(Br)o1	3.23	2.59
Cc1cccc(NC(c2cccc(Cl)c2)c2ccc3cccnc3c2O)n1 (stereo not drawn)	3.34	3.47
CC(C)(C)C(=O)Cn1ccc(=N)c2ccccc21	> 15	> 15
CCOC(=O)c1ccc(N2Cc3ccccc3C2)cc1O	> 15	> 15
COc1cc(/C=C(\C#N)c2nc(-c3ccc(Cl)cc3)cs2)cc([N+](=O)[O-])c1O	> 15	> 15
CCOc1cccc(-c2cc(C(=O)Nc3cc(C)ccn3)c3ccccc3n2)c1	> 15	> 15
Cc1ccc(-n2nc(C)c3c(C)c(CCC(=O)Nc4ccc5[nH]c(-c6cccnc6)nc5c4)c(C)nc32)cc1C	1.04	0.798
CCc1ccc(OC(C)C(=O)Nc2nccs2)cc1 (stereo not drawn)	> 15	> 15
Cc1cccc(CN2C(=O)/C(=C\c3ccc(C(=O)NC4CCCC4)cc3)Sc3ccccc32)c1	4.69	3.99
O=C(Nc1ccc([N+](=O)[O-])cc1)Nc1cc(Cl)cc(Cl)c1	> 15	> 15
OCCNc1nc(Nc2ccc(Br)cc2)nc2ccccc12	1.7	0.829
CS(=O)(=O)N(CC(=O)Nc1ccccc1Sc1ccccc1)c1ccc(Cl)c(Cl)c1	5.95	4.06
COc1ccc2nc(N(Cc3cccnc3)C(=O)C3CCCCC3)sc2c1	2.65	3.51
COc1ccc(C2C(C(=O)Nc3cc(OC)ccc3OC)c3ccccc3C(=O)N2C)cc1 (stereo not drawn)	6.96	> 15
CC(C)(C)OC(=O)CCN1C(=O)CSC1c1cnccc1-c1ccc(Br)cc1 (stereo not drawn)	3.17	2.32
CC(C)CC(=O)NC(c1ccc(Cl)cc1)c1c(O)ccc2ccccc12 (stereo not drawn)	4.78	4.17
CCOC(=O)c1ccc(Nc2nc3nonc3nc2NCc2ccco2)cc1	> 15	> 15
CCCSc1nc2sc3c(c2c(=O)n1-c1ccc(C)cc1)CCN(Cc1ccccc1)C3	1.61	1.31
Cc1cccc2sc(NNC(=O)c3ccc(S(=O)(=O)N(C)C)cc3)nc12	5.83	7.12
Cc1onc(-c2ccccc2)c1C(=O)Nc1cccc(Br)c1	> 15	> 15

Compound	EC50 [1] [µM]	EC50 [2] [µM]
CCc1ccc(C(O)(CCC(C)C)C(CN2CCOCC2)c2ccccc2)cc1 (stereo not drawn)	1.99	2.45
CCOC(=O)c1ccc(OCC2c3cc(OC)c(OC)cc3CCN2C(=O)Nc2ccccc2)cc1 (stereo not drawn)	0.776	4.03
CCCCC(=O)NC(c1ccc(Cl)cc1Cl)c1ccc2cccnc2c1O (stereo not drawn)	5.3	> 15
N=C(N/N=C\c1ccc(F)cc1)N/N=C\c1ccc(F)cc1	4.74	0.753
COc1ccccc1/C=C/CN1CCC(C(Cc2ccccc2)N(C)C(=O)c2cc(C)nn2C)CC1 (stereo not drawn)	> 15	> 15
CCN(CC)C(=O)c1sc(NC(=O)CCc2ccccc2)c(C(=O)OC(C)C)c1C	> 15	> 15
Cc1nc2sc(C(c3ccc(Cl)cc3)N3CCC4(CC3)OCCO4)c(O)n2n1 (stereo not drawn)	> 15	> 15
CCCCC(=O)NC(c1ccc(C(C)C)cc1)c1cc([N+](=O)[O-])c2cccnc2c1O (stereo not drawn)	5.13	> 15
CCOc1ccc(NC(=O)C2c3ccccc3C(=O)N(C3CCCC3)C2c2cccs2)cc1 (stereo not drawn)	3.88	2.95
COc1ccc2cc3cc(C(=O)Nc4ccccc4N4CCN(C)CC4)sc3nc2c1	> 15	> 15
CCN(CC)c1cc(C)c2cc(NC(=O)c3ccc(Cl)c([N+](=O)[O-])c3)ccc2n1	> 15	> 15
O=C(NC(NC(=S)Nc1ccc(Cl)cc1)C(Cl)(Cl)Cl)c1ccccc1F (stereo not drawn)	4.07	2.73
Cc1cc(N2CCN(C)CC2)nc2ccc(NC(=S)NCCN3CCN(c4ccccc4F)CC3)cc12	6.21	2
Cc1cccc(CN2C(=O)/C(=C\c3ccccc3)Sc3ccc(C(=O)NCCN(C)C4CCCCC4)cc32)c1	3.75	1.78
CCO/C(O)=C1\C(C)=NC2=C(C(=O)CC(c3ccc(Cl)cc3)C2)C1c1ccc(O)c(OCC)c1 (stereo not drawn)	1.47	0.881
Cc1ccc(Oc2c(C(F)(F)F)oc3c(CN4CCN(C)CC4)c(O)ccc3c2=O)cc1	1.22	1.43
CC(C)(C)c1ccc(C(=O)Nc2cccc(NC(=O)c3cccs3)c2)cc1	> 15	> 15
Cc1ccc(C(C)(C)C)c(OCCCCn2ccnc2)c1	5.68	6.66
COc1ccc(Nc2cc(C)nc(Nc3ccc(NS(=O)(=O)c4cccc(F)c4)cc3)n2)cc1	7.31	2.05
Cc1cc(C)c(S(=O)(=O)N(C)CC(=O)Nc2cccc(C(F)(F)F)c2)c(C)c1	> 15	> 15
CCC(=O)NC(c1ccc(OC)c(OC)c1)c1ccc2cccnc2c1O (stereo not drawn)	4.78	3.8

Compound	EC50 [1] [µM]	EC50 [2] [µM]
COc1cc(/C=C/C(=O)Nc2cccc(Br)c2)cc(OC)c1OC	> 15	> 15
CCc1ccc(C(Nc2ccccn2)c2ccc3cccnc3c2O)cc1 (stereo not drawn)	2.72	2.31
O=C(CN(Cc1ccc(F)cc1)S(=O)(=O)c1ccc(Cl)cc1)Nc1ccccc1Cl	1.46	> 15
O=C1C(Nc2ccc(Br)cc2)=C(N2CCOCC2)C(=O)c2ccccc21	0.377	1.79
CCOc1ccc(/C=C2\Oc3c(ccc(O)c3CN(CC)CC)C2=O)cc1	5.17	> 15
COc1ccc(CCNC(=S)Nc2cc(Cl)ccc2Cl)cc1OC	2.94	3.43
O=C(Nc1cccc(OC(F)(F)F)c1)c1ccc(Br)o1	> 15	> 15
CCOc1ccc(-c2nonc2NC(=O)C(C)C)cc1OCC	1.8	1.39
COc1ccc(S(=O)(=O)Nc2ccc(Nc3nc(C)cc(Nc4ccc(C)cc4)n3)cc2)cc1	7.51	0.618
CCOc1ccc(-c2nc(NC(=O)c3cccc(S(C)(=O)=O)c3)sc2C)cc1	> 15	> 15
CCc1c(C)nc(-n2nc(C)cc2NC(=O)c2cccc(OC)c2)nc1O	> 15	> 15
Cc1cccn2c(=O)nc(SCc3cccc(F)c3)nc12	10.1	> 15
COC(=O)C1=C(C)N=c2s/c(=C\c3ccccc3OC(C)=O)c(=O)n2C1c1ccccc1Cl (stereo not drawn)	> 15	> 15
CC(C)COc1ccc(COC2C(C3COC(C)(C)O3)OC3OC(C)(C)OC32)cc1 (stereo not drawn)	> 15	7.79
COc1cc2c(cc1OC)C(COc1cccc(C(F)(F)F)c1)N(C(=O)C(C)(C)C)CC2 (stereo not drawn)	8.91	6.77
CSc1nnc(-c2cccc([N+](=O)[O-])c2)n1Cc1ccccc1	1.3	1.39
CCOCc1cc(CN2CCN(CCC(C)C)C(CCO)C2)ccc1OC (stereo not drawn)	> 15	> 15
N#C/C(=C/c1ccc(O)c([N+](=O)[O-])c1)c1nc(-c2ccc(Cl)cc2)cs1	> 15	> 15
CCN1CCN(c2cc(C)c3cc(NC(=S)NCCN4CCN(c5cccc(Cl)c5)CC4)ccc3n2)CC1	6.15	2.4
CCOc1c(Br)cc(C2C(C#N)=C(N)Oc3cc4c(cc32)OCO4)cc1OC (stereo not drawn)	2.73	2.32
COc1cccc2c(C)nc(N=C(N)N)nc12	> 15	> 15

Compound	EC50 [1] [µM]	EC50 [2] [µM]
COc1ccc(S(=O)(=O)n2nc(-c3ccc(Cl)cc3)cc2N)cc1OC	> 15	6.54
Cn1c(=N)n(CC(O)c2ccc(Cl)c(Cl)c2)c2ccccc21 (stereo not drawn)	2.43	2.3
O=C(c1cccs1)N(Cc1cccnc1)c1nc2c(Cl)cccc2s1	3.84	> 15
COc1ccc(-c2onc(C(F)(F)F)c2Oc2cnn(-c3ccccc3)c2)c(O)c1	1.61	1.81
COc1ccc(C(C)(C)C)cc1S(=O)(=O)Nc1ccc(Nc2nc(C)cc(N(C)C)n2)cc1	1.32	0.741
COc1ccc(CN2CCCC(N3CCN(c4ccc(F)cc4)CC3)C2)c(O)c1 (stereo not drawn)	1.04	1.61
CCCc1cc(O)nc(-n2nc(C)cc2NC(=O)c2cc(C(F)(F)F)cc(C(F)(F)F)c2)n1	> 15	> 15
CCCC(=O)NC(c1ccc(Cl)cc1)c1ccc2cccnc2c1O (stereo not drawn)	2.3	1.88
CCOC(=O)c1c(CN(C)C)n(-c2ccccc2)c2cc(Br)c(O)cc12	> 15	4.14
COc1ccc2c(c1)C=C/C(=C\c1sc3ccccc3[n+]1C)N2C	0.145	0.163
CCC(=O)NC(c1ccc(N(C)C)cc1)c1ccc2cccnc2c1O (stereo not drawn)	4.44	4.07
COc1ccc(-n2c(N)c(C#N)c3nc4ccccc4nc32)cc1	1.61	0.487
CCCCCN1CCN(c2nc3c(c(=O)[nH]c(=O)n3C)n2Cc2ccc(C)cc2)CC1	> 15	> 15
O=C1CC(c2ccc(Cl)cc2Cl)C2=C(CC(c3ccc(F)cc3)CC2=O)N1 (stereo not drawn)	> 15	> 15
COc1ccc(OC)c(/C=N/Nc2nc3ccccc3[nH]2)c1	> 15	3.64
COc1cc2nnc(/C=C/C(C)=O)c(-c3ccc(C)o3)c2cc1OC	> 15	> 15
CCCc1cc(O)nc(-n2nc(C)cc2NC(=O)c2cc(C)cc(C)c2)n1	> 15	> 15
CCOC(=O)N1CCN(C(=O)Nc2cc(C(F)(F)F)cc(C(F)(F)F)c2)CC1	> 15	2.05
CCc1ccc(C(Nc2ccccn2)c2cc(Cl)c3cccnc3c2O)cc1 (stereo not drawn)	> 15	4.41
Cc1ccc2c(c1)C=C/C(=C\c1cccc[n+]1C)N2C	0.138	0.19
Cc1cc(C)c2c(c1)c(-c1ccccc1)c(-c1ccccc1)n2CC(O)CN1CCN(CCO)CC1 (stereo not drawn)	1.59	2.16
